Data taken from patent US11957759B1, “Rapidly accelerated fibrosarcoma (RAF) degrading compounds and associated methods of use” (Arvinas Operations, Inc., priority 2022, dated 2024).

Experiments:
B-RAF V600E = target: T1, B-RAF V600E (Homo sapiens, UniProt P15056, V600E); assay: Target protein degradation, assay C: T-Rex 293 cells, HA-BRAF_V600E, 384 well format; type: cell-based; settings: T-Rex 293 HA-BRAF_V600E cells, 24 hours, Examples 83-269; for DC50: Assay C; for Dmax: T-REx-293, Assay C
T1 construct: expressed in transfected cells; host or cells: T-Rex 293 cells (Invitrogen #R71007)
In short: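 After 24 h exposure to an 11-point 1:3 series (300 nM–5 pM, 0.5% DMSO), fixed T-Rex 293 cells carrying HA-BRAF V600E (induced with 1 ng/mL doxycycline) were stained anti-HA and imaged. DC50 and Dmax were derived from BRAF intensity relative to control, and cytotoxicity from nuclear counts.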

B-RAF G466V = target: T2, B-RAF G466V (Homo sapiens, UniProt P15056, G466V); assay: Target protein degradation, assay D: T-Rex 293 cells, HA-BRAF_G466V, 384 well format; type: cell-based; settings: T-Rex 293 HA-BRAF_G466V cells, 24 hours, Examples 83-269; for DC50: Assay D; for Dmax: T-REx-293, Assay D
T2 construct: expressed in transfected cells; host or cells: T-Rex 293 cells (Invitrogen #R71007)
In short: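 Degradation measured by high-content imaging of anti-HA immunofluorescence in fixed T-Rex 293 cells carrying inducible HA-BRAF G466V (1 ng/mL doxycycline), after 24 h PROTAC exposure at 37 °C over 300 nM–5 pM (1:3, 11 points, 0.5% DMSO). Outputs DC50 and Dmax as % of control; nuclei counts against DMSO wells gauge toxicity.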

T1 sequence (P15056 whole entry V600E): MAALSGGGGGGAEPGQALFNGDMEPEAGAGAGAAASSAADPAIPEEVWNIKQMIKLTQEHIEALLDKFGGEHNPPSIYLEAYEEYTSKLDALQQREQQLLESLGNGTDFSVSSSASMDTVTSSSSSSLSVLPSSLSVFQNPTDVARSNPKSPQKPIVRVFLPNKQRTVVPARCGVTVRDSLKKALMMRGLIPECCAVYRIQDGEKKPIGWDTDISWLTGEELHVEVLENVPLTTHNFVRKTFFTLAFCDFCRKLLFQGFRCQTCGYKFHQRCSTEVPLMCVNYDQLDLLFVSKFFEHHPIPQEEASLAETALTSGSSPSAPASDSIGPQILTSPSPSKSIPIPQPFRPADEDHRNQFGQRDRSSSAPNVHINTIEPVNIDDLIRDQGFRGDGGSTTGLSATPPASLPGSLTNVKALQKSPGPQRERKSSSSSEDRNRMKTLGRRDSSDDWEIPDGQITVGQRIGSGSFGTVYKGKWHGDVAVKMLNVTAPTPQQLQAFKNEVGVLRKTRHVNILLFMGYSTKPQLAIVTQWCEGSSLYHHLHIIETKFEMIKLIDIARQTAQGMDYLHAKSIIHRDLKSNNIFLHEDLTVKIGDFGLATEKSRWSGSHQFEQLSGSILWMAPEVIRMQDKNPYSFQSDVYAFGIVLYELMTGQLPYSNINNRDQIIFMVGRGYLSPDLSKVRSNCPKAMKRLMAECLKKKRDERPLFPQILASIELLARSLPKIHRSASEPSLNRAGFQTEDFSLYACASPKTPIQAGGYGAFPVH
T2 sequence (P15056 whole entry G466V): as the sequence (P15056 whole entry V600E) above, with G466V, E600V counted along it

Row | DC50 (B-RAF V600E) | Dmax (B-RAF V600E) | DC50 (B-RAF G466V) | Dmax (B-RAF G466V) | SMILES
1 | 5 to 50 nM | 35 to 70% | 1 to 10 nM | 35 to 70% | N#Cc1c(NS(=O)(=O)N2CC[C@@H](F)C2)ccc(F)c1Oc1ccc2ncn(-c3ccc(N4CCN(CC5CCN(c6ccc7c(c6)CN([C@@H]6CCC(=O)NC6=O)C7=O)CC5)CC4)cc3)c(=O)c2c1 [Example 103, (3R)-N-(2-cyano-3-{[3-(4-{4-[(1-{2-[(3R)-2,6-dioxopiperidin-3-yl]-1-oxo-2,3-dihydro-1H-isoindol-5-yl}piperidin-4-yl)methyl]piperazin-1-yl}phenyl)-4-oxo-3,4-dihydroquinazolin-6-yl]oxy}-4-fluorophenyl)-3-fluoropyrrolidine-1-sulfonamide]
2 | 5 to 50 nM | 35 to 70% | 1 to 10 nM | 35 to 70% | Cc1c(N2CCC(CN3CCN(c4ccc(-n5cnc6ccc(Oc7c(F)ccc(NS(=O)(=O)N8CC[C@@H](F)C8)c7C#N)cc6c5=O)cc4)CC3)CC2)ccc2c1CN(C1CCC(=O)NC1=O)C2=O (stereo partly drawn) [Example 104, (3R)-N-{2-cyano-3-[(3-{4-[4-({1-[2-(2,6-dioxopiperidin-3-yl)-4-methyl-1-oxo-2,3-dihydro-1H-isoindol-5-yl]piperidin-4-yl}methyl)piperazin-1-yl]phenyl}-4-oxo-3,4-dihydroquinazolin-6-yl)oxy]-4-fluorophenyl}-3-fluoropyrrolidine-1-sulfonamide]
3 | 5 to 50 nM | 35 to 70% | 1 to 10 nM | 35 to 70% | N#Cc1c(NS(=O)(=O)N2CC[C@@H](F)C2)ccc(F)c1Oc1ccc2ncn(-c3ccc(N4CCN(CC5CN(c6ccc7c(c6)CN([C@@H]6CCC(=O)NC6=O)C7=O)C5)CC4)cc3)c(=O)c2c1 [Example 107, (3R)-N-(2-cyano-3-{[3-(4-{4-[(1-{2-[(3R)-2,6-dioxopiperidin-3-yl]-1-oxo-2,3-dihydro-1H-isoindol-5-yl}azetidin-3-yl)methyl]piperazin-1-yl}phenyl)-4-oxo-3,4-dihydroquinazolin-6-yl]oxy}-4-fluorophenyl)-3-fluoropyrrolidine-1-sulfonamide]
4 | 50 to 500 nM | 35 to 70% | 1 to 10 nM | 35 to 70% | CCN(C)S(=O)(=O)Nc1ccc(F)c(Oc2ccc3ncn(-c4ccc(N5CCN(CC6CCN(c7ccc8c(c7)CN(C7CCC(=O)NC7=O)C8=O)CC6)CC5)cc4)c(=O)c3c2)c1C#N (stereo not shown) [Example 109, 2-[(3-{4-[4-({1-[2-(2,6-dioxopiperidin-3-yl)-1-oxo-2,3-dihydro-1H-isoindol-5-yl]piperidin-4-yl}methyl)piperazin-1-yl]phenyl}-4-oxo-3,4-dihydroquinazolin-6-yl)oxy]-6-{[ethyl(methyl)sulfamoyl]amino}-3-fluorobenzonitrile]
5 | 50 to 500 nM | 35 to 70% | > 30 nM | – | CCN(C)S(=O)(=O)Nc1ccc(F)c(Oc2ccc3ncn(-c4ccc(N5CCN(CC6CCN(c7ccc(C8CCC(=O)NC8=O)cc7F)CC6)CC5)cc4)c(=O)c3c2)c1C#N (stereo not shown) [Example 110, 2-[(3-{4-[4-({1-[4-(2,6-dioxopiperidin-3-yl)-2-fluorophenyl]piperidin-4-yl}methyl)piperazin-1-yl]phenyl}-4-oxo-3,4-dihydroquinazolin-6-yl)oxy]-6-{[ethyl(methyl)sulfamoyl]amino}-3-fluorobenzonitrile]
6 | 50 to 500 nM | ≤ 35% | 1 to 10 nM | 35 to 70% | N#Cc1c(NS(=O)(=O)N2CC[C@@H](F)C2)ccc(F)c1Oc1ccc2ncn(-c3ccc(N4CCN(CC5CCN(c6ccc7c(c6F)CN([C@H]6CCC(=O)NC6=O)C7=O)CC5)CC4)cn3)c(=O)c2c1 [Example 114, (3R)-N-(2-cyano-3-{[3-(5-{4-[(1-{2-[(3S)-2,6-dioxopiperidin-3-yl]-4-fluoro-1-oxo-2,3-dihydro-1H-isoindol-5-yl}piperidin-4-yl)methyl]piperazin-1-yl}pyridin-2-yl)-4-oxo-3,4-dihydroquinazolin-6-yl]oxy}-4-fluorophenyl)-3-fluoropyrrolidine-1-sulfonamide]
7 | 50 to 500 nM | 35 to 70% | > 30 nM | – | N#Cc1c(NS(=O)(=O)N2CC[C@@H](F)C2)ccc(F)c1Oc1ccc2ncn(-c3cnc(N4CCN(c5ccc6c(c5)CN(C5CCC(=O)NC5=O)C6=O)CC4)nc3)c(=O)c2c1 (stereo partly drawn) [Example 127, (3R)-N-(2-cyano-3-{[3-(2-{4-[2-(2,6-dioxopiperidin-3-yl)-1-oxo-2,3-dihydro-1H-isoindol-5-yl]piperazin-1-yl}pyrimidin-5-yl)-4-oxo-3,4-dihydroquinazolin-6-yl]oxy}-4-fluorophenyl)-3-fluoropyrrolidine-1-sulfonamide]
8 | 50 to 500 nM | 35 to 70% | 1 to 10 nM | ≤ 35% | N#Cc1c(NS(=O)(=O)N2CC[C@@H](F)C2)ccc(F)c1Oc1ccc2ncn(-c3cnc(N4CCC(CN5CCC6(CC5)CN(c5cccc7c5CN(C5CCC(=O)NC5=O)C7=O)C6)CC4)nc3)c(=O)c2c1 (stereo partly drawn) [Example 131, (3R)-N-{2-cyano-3-[(3-{2-[4-({2-[2-(2,6-dioxopiperidin-3-yl)-1-oxo-2,3-dihydro-1H-isoindol-4-yl]-2,7-diazaspiro[3.5]nonan-7-yl}methyl)piperidin-1-yl]pyrimidin-5-yl}-4-oxo-3,4-dihydroquinazolin-6-yl)oxy]-4-fluorophenyl}-3-fluoropyrrolidine-1-sulfonamide]

Continued, compound first:

Row | SMILES | DC50 (B-RAF V600E) | Dmax (B-RAF V600E) | DC50 (B-RAF G466V) | Dmax (B-RAF G466V)
9 | N#Cc1c(NS(=O)(=O)N2CC[C@@H](F)C2)ccc(F)c1Oc1ccc2ncn(-c3cnc(C4(N5CCN(CC6CCN(c7ccc(NC8CCC(=O)NC8=O)cc7F)CC6)CC5)CC4)nc3)c(=O)c2c1 (stereo partly drawn) [Example 102, (3R)-N-[2-cyano-3-({3-[2-(1-{4-[(1-{4-[(2,6-dioxopiperidin-3-yl)amino]-2-fluorophenyl}piperidin-4-yl)methyl]piperazin-1-yl}cyclopropyl)pyrimidin-5-yl]-4-oxo-3,4-dihydroquinazolin-6-yl}oxy)-4-fluorophenyl]-3-fluoropyrrolidine-1-sulfonamide] | 50 to 500 nM | 35 to 70% | > 30 nM | –
10 | N#Cc1c(NS(=O)(=O)N2CC[C@@H](F)C2)ccc(F)c1Oc1ccc2ncn(-c3cnc(C4(N5CCN(CC6CN(c7ccc(C8CCC(=O)NC8=O)cc7F)C6)CC5)CC4)nc3)c(=O)c2c1 (stereo partly drawn) [Example 105, (3R)-N-(2-cyano-3-{[3-(2-{1-[4-({1-[4-(2,6-dioxopiperidin-3-yl)-2-fluorophenyl]azetidin-3-yl}methyl)piperazin-1-yl]cyclopropyl}pyrimidin-5-yl)-4-oxo-3,4-dihydroquinazolin-6-yl]oxy}-4-fluorophenyl)-3-fluoropyrrolidine-1-sulfonamide] | 5 to 50 nM | 35 to 70% | 1 to 10 nM | ≤ 35%
11 | N#Cc1c(NS(=O)(=O)N2CC[C@@H](F)C2)ccc(F)c1Oc1ccc2ncn(-c3cnc(C4(N5CCN(CC6CCN(c7ccc(C8CCC(=O)NC8=O)cc7F)CC6)CC5)CC4)nc3)c(=O)c2c1 (stereo partly drawn) [Example 106, (3R)-N-(2-cyano-3-{[3-(2-{1-[4-({1-[4-(2,6-dioxopiperidin-3-yl)-2-fluorophenyl]piperidin-4-yl}methyl)piperazin-1-yl]cyclopropyl}pyrimidin-5-yl)-4-oxo-3,4-dihydroquinazolin-6-yl]oxy}-4-fluorophenyl)-3-fluoropyrrolidine-1-sulfonamide] | 50 to 500 nM | 35 to 70% | 1 to 10 nM | ≤ 35%
12 | N#Cc1c(NS(=O)(=O)N2CC[C@@H](F)C2)ccc(F)c1Oc1ccc2ncn(-c3cnc(C4(N5CCN(CC6CN(c7ccc(NC8CCC(=O)NC8=O)cc7F)C6)CC5)CC4)nc3)c(=O)c2c1 (stereo partly drawn) [Example 108, (3R)-N-[2-cyano-3-({3-[2-(1-{4-[(1-{4-[(2,6-dioxopiperidin-3-yl)amino]-2-fluorophenyl}azetidin-3-yl)methyl]piperazin-1-yl}cyclopropyl)pyrimidin-5-yl]-4-oxo-3,4-dihydroquinazolin-6-yl}oxy)-4-fluorophenyl]-3-fluoropyrrolidine-1-sulfonamide] | 5 to 50 nM | 35 to 70% | 1 to 10 nM | ≤ 35%
13 | N#Cc1c(NS(=O)(=O)N2CC[C@@H](F)C2)ccc(F)c1Oc1ccc2ncn(-c3cnc(N4CCC(CN5CCC6(CC5)CCN(c5ccc7c(c5)C(=O)N(C5CCC(=O)NC5=O)C7=O)CC6)CC4)nc3)c(=O)c2c1 (stereo partly drawn) [Example 129, (3R)-N-{2-cyano-3-[(3-{2-[4-({9-[2-(2,6-dioxopiperidin-3-yl)-1,3-dioxo-2,3-dihydro-1H-isoindol-5-yl]-3,9-diazaspiro[5.5]undecan-3-yl}methyl)piperidin-1-yl]pyrimidin-5-yl}-4-oxo-3,4-dihydroquinazolin-6-yl)oxy]-4-fluorophenyl}-3-fluoropyrrolidine-1-sulfonamide] | 50 to 500 nM | 35 to 70% | 1 to 10 nM | 35 to 70%
14 | N#Cc1c(NS(=O)(=O)N2CC[C@@H](F)C2)ccc(F)c1Oc1ccc2ncn(-c3cnc(N4CCCC4CC4CCN(c5ccc6c(c5)C(=O)N(C5CCC(=O)NC5=O)C6=O)CC4)nc3)c(=O)c2c1 (stereo partly drawn) [Example 130, (3R)-N-{2-cyano-3-[(3-{2-[2-({1-[2-(2,6-dioxopiperidin-3-yl)-1,3-dioxo-2,3-dihydro-1H-isoindol-5-yl]piperidin-4-yl}methyl)pyrrolidin-1-yl]pyrimidin-5-yl}-4-oxo-3,4-dihydroquinazolin-6-yl)oxy]-4-fluorophenyl}-3-fluoropyrrolidine-1-sulfonamide] | > 500 nM | – | 10 to 30 nM | ≤ 35%
